Ki, Ratio and IC50 data for five compounds are collected here from ChEMBL document CHEMBL1130602 (Bioorg Med Chem Lett, 1998).

In experiment [1] the target is T1, D(4) dopamine receptor (Homo sapiens, UniProt P21917).
T1 sequence (P21917 whole entry): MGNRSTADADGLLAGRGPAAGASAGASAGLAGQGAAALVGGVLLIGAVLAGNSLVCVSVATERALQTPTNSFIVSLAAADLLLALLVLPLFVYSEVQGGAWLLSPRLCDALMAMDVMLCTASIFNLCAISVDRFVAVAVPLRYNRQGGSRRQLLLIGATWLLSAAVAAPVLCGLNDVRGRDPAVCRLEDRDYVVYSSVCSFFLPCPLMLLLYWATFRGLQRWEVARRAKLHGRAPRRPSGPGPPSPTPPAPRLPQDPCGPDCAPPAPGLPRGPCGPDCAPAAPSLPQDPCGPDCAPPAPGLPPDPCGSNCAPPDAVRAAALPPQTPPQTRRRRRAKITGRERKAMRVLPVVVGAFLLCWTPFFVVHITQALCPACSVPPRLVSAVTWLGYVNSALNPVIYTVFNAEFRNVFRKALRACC
The experiment can be described thus: Affinity against D4 receptor was evaluated.

In experiment [2] the target is D(2) dopamine receptor (Homo sapiens) (UniProt P14416). In words: Selectivity ratio of Ki of D2 receptor to that of D3 receptor.
D(2) dopamine receptor (Homo sapiens), sequence (P14416 whole entry): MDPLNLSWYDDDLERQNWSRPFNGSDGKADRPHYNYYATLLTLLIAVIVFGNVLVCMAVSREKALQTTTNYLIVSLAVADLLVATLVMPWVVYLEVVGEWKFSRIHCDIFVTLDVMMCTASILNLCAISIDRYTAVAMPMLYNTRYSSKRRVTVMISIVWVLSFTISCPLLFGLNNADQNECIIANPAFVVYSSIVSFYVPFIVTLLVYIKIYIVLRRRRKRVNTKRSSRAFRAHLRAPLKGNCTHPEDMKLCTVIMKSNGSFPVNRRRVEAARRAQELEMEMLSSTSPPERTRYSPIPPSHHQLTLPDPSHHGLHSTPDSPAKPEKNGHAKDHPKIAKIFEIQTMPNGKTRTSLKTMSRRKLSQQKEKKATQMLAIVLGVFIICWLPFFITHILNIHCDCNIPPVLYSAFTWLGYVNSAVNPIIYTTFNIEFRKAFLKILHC
The test system of experiment [3] is CHO-hD3. The experiment can be described thus: (§1) Compound was tested for stimulation of mitogenesis in CHO.hD3 cells in a dose dependent manner. It is filed as functional, cell-based. Particulars: Cricetulus griseus.
The target of experiment [4] is T2, Adrenergic receptor alpha-1 (Rattus norvegicus, UniProt P15823+P23944+P43140).
T2 sequence (P15823 whole entry): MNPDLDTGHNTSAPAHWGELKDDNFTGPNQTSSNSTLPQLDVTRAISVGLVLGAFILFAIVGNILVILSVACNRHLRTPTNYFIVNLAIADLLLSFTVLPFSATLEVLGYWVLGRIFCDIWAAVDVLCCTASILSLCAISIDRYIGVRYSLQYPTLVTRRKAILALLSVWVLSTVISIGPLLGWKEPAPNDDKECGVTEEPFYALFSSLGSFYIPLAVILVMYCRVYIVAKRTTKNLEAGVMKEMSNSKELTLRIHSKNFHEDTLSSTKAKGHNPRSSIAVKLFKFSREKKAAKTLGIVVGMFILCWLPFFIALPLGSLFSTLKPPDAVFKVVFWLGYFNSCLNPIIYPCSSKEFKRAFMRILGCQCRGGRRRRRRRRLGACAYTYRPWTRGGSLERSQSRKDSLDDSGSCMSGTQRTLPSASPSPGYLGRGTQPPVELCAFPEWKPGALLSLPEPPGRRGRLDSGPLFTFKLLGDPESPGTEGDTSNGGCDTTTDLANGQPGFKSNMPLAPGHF
T2 sequence (P23944 whole entry): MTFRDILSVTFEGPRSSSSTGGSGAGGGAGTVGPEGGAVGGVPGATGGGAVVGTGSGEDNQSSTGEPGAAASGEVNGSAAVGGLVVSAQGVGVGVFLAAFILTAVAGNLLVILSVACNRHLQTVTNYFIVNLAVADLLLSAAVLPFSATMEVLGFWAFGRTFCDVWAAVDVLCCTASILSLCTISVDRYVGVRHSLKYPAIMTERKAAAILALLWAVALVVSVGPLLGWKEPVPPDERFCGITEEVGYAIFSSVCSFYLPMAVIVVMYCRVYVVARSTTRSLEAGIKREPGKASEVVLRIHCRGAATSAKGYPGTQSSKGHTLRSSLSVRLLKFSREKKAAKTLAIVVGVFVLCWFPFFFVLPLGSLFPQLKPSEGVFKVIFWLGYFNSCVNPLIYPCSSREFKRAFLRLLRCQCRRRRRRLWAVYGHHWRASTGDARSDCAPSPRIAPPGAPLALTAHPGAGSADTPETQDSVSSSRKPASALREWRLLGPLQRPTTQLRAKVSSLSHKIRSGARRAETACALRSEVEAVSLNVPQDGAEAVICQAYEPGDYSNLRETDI
T2 sequence (P43140 whole entry): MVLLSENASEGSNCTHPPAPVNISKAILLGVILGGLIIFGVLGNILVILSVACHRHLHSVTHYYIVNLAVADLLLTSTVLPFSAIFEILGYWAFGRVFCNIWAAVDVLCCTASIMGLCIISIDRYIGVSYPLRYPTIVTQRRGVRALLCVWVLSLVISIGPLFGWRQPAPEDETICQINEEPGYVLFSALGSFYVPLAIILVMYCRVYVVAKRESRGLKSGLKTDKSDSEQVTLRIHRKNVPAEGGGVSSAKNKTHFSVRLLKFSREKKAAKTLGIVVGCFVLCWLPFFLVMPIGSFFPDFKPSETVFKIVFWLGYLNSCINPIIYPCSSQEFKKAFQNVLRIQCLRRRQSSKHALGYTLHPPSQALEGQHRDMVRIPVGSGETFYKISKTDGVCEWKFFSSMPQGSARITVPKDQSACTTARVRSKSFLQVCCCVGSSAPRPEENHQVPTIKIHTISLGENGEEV
The experiment can be described thus: Compound was evaluated for binding affinity against Alpha-1 adrenergic receptor from rat. It is filed as protein assay.

Experiment [5] has as its target D(1A) dopamine receptor (Homo sapiens, UniProt P21728). In words: Compound was evaluated for binding affinity against Dopamine receptor D1 transfected in CHO cell membranes.
Experiment [6] deals with Serotonin 2 (5-HT2) receptor (Rattus norvegicus, UniProt P30994+P08909+P14842). The experiment can be described thus: Compound was evaluated for binding affinity against 5-hydroxytryptamine 2 receptor from rat. In kind it is protein assay.
Experiment [7] addresses T1, D(4) dopamine receptor. The experiment can be described thus: Compound was evaluated for binding affinity against human Dopamine receptor D4 transfected in CHO cell membranes.
The target in experiment [8] is D(1B) dopamine receptor (Homo sapiens, UniProt P21918). The experiment can be described thus: Compound was evaluated for binding affinity against human Dopamine receptor D5 transfected in CHO cell membranes.
D(1B) dopamine receptor, sequence (P21918 whole entry): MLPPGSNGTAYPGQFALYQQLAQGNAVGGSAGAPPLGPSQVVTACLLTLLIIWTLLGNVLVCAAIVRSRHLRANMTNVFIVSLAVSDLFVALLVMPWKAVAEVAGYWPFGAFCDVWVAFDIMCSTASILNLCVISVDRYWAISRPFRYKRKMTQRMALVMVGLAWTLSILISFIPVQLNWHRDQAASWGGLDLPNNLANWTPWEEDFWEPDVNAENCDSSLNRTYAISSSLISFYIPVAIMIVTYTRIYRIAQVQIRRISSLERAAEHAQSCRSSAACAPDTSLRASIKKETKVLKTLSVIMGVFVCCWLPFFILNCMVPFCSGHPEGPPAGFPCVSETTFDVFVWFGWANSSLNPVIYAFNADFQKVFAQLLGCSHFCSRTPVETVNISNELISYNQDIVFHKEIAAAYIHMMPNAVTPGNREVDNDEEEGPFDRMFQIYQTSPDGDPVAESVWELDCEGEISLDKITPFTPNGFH
In experiment [9] the target is D(3) dopamine receptor (Homo sapiens, UniProt P35462). The experiment can be described thus: Compound was evaluated for binding affinity against human Dopamine receptor D3 transfected in CHO cell membranes to stimulate [3H]thymidine uptake.
D(3) dopamine receptor, sequence (P35462 whole entry): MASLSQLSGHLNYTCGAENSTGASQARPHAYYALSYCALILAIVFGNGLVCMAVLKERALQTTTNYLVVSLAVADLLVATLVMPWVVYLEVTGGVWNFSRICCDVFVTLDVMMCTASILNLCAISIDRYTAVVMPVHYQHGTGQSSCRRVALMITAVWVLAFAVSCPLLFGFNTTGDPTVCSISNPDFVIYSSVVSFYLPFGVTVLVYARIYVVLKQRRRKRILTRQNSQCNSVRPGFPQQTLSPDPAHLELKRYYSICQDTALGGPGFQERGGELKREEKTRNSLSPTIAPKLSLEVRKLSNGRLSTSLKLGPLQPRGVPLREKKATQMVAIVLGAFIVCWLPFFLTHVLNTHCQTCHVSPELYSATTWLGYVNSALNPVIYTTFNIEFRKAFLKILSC
For experiment [10], the system named is CHO. The experiment is described as §1. In kind it is functional, cell-based. The following applies: Cricetulus griseus.

D(1A) dopamine receptor, sequence (P21728 whole entry): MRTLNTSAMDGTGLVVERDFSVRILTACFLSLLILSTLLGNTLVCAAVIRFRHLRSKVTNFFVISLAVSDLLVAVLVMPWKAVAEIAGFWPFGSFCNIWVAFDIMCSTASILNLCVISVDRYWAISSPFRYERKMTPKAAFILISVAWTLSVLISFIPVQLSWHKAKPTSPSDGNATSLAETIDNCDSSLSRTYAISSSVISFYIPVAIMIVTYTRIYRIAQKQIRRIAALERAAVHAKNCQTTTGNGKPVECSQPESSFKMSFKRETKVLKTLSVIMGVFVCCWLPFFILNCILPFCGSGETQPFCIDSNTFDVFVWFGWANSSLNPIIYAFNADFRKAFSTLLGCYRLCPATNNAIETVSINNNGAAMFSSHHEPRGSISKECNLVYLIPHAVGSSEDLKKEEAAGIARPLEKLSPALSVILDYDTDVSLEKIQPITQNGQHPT

Consider `COc1c(C(=O)NCCN2CCN(c3cccc(Cl)c3Cl)CC2)cc(Br)c2ccccc12`, for which the affinity in [1], expressed as Ki, was 65 nM.

With `CCCCN1CCCC1CNC(=O)c1cc(C#N)c2ccccc2c1OC` (stereo unspecified), the Ratio in [2] came out at 10.

`O=C(CCCN1CCC(O)(c2ccc(Cl)cc2)CC1)c1ccc(F)cc1` [HALOPERIDOL]: the IC50 (usually the concentration that inhibits the measured activity by half) in [3] stood at 8.8 nM.

For `O=C(NCCCCN1CCN(c2cccc(Cl)c2Cl)CC1)c1ccc2c(c1)Cc1ccccc1-2`, the Ki (usually a measure of affinity in units of concentration, obtained from inhibition or displacement) in [4] is 642 nM; in experiment [5], > 10000 nM; in [6] it was 223 nM; in [7] it was > 5000 nM; in [8], > 10000 nM. In experiment [3], the IC50 came to 5 nM.

In the case of `O=C(NCCCCN1CCN(c2cccc(Cl)c2Cl)CC1)c1ccc2c(c1)-c1ccccc1-2`, the inhibitory constant (Ki) in experiment [4] was 547 nM; in [5] it was > 10000 nM; in experiment [6], 125 nM; in [9], 0.9 nM; in experiment [7] it was > 5000 nM; in [8], > 10000 nM. Further, the concentration for half-maximal inhibition (IC50) in experiment [10] stood at 6.8 nM.
